# Test results as given in patent US11491127B2, “Therapeutic use of compounds” (UCL BUSINESS LTD, priority 2010, dated 2022).
# What was measured:
# [1] = test system: inositol trisphosphate (InsP3) levels in Dictyostelium; conditions: Williams et al., 1999; cited from earlier work
# [2] = Table 2; cited from earlier work
# [3] = test system: fatty acid CoA activation in Dictyostelium cell extracts; assay: Fatty acid activation (palmitic acid to PaA-CoA) in cell extracts; assay type: biochemical, Dictyostelium discoideum; conditions: VPA 1.0 mM with cell extracts or 10 min, 1 mM pre-treatment of cells
# Procedure: Screening of a REMI library was carried out as previously described (Kuspa & Loomis, 2006) using A×2 background, with VPA resistant mutants selected for the ability to develop in the presence of 1 mM VPA on R. planticola. Identification of the ablated gene, enabled the identified PLAa (DDB_G0278525; SEQ ID NO: 16) to be recapitulated using by homologous recombination of a knockout cassette. Primers used for amplifying region within the open reading frame of the gene were (5′ […] (SEQ ID NO: 17) and 3′ […] (SEQ ID NO: 18), cloned by pCR2.1 TOPO (Invitrogen Ltd)), cloned into pUC19 using EcoRI digestion, and Sinai digested fragment from pBLPblp (Falx et al, 2004) was inserted into the EcoRV site of the insert. Genetic ablation was confirmed by PCR analysis. Developmental resistance to VPA was assessed by plating cells (1×10^6) on 47 mm nitrocellulose filters (Millipore) soaked in phosphate buffer containing either 1 mM VPA or control, and development was recorded after 30 h unless otherwise stated. Development images were observed using a Leica CLS 150× microscope and images recorded using QICAM FAST 1394 camera. Fatty acid activation was determined by the method established by Wilson et al. (Wilson et al, 1982) with slight modifications. […]
# [4] = test system: self-sustaining status epilepticus in Sprague Dawley rats; assay: In vivo status epilepticus (perforant path stimulation); set-up: species or system rat; conditions: for effectiveness in status epilepticus model: previously found by the inventors
# Procedure: This method has been described in detail previously (Walker et al., 1999). In brief, male Sprague Dawley rats […] were anesthetized with 1-2% isoflurane in O2. An earth electrode was positioned subcutaneously, and a monopolar recording electrode was implanted stereotactically into the right hippocampus (coordinates, 2.5 mm lateral and 4 mm caudal from bregma). A bipolar stimulating electrode was implanted in the right hemisphere and advanced into the angular bundle (coordinates, 4.4 mm lateral and 8.1 mm caudal from bregma) to stimulate the perforant path. The depths of the electrodes were adjusted to maximize the slope of the dentate granule cell field potential (Guo et al., 1999). The electrodes were held in place with dental acrylic and skull screws. The animals were allowed to recover from anaesthesia. Seven days later, the perforant path was electrically stimulated with 4-5 mA 50 μsec monopolar pulses at 20 Hz for 2 hr; this induced self-sustaining status epilepticus. After 10 min of self-sustaining status epilepticus, compounds or vehicle were administered and the behavioural seizures and EEG were monitored for 3 hours. At this point diazepam (10 mg/kg) was administered to all animals to stop the status epilepticus. Groups were compared by ANOVA followed by post-hoc testing using Tukey test, using SPSS.
# [5] = test system: inositol levels in Dictyostelium cells; assay: Inositol levels in treated Dictyostelium cells; assay type: cell-based, Dictyostelium discoideum; conditions: time period causing phosphoinositide attenuation (9 min)
# Procedure: Following a 6 min incubation, labelling solution was removed and cells were lysed in acidified methanol and phospholipids were separated as previously detailed (Williams et al., 1999). Phospholipid labelling was quantified using a Typhoon phosphor-imager. Even loading was determined using total lipid stain with copper sulphate. Inositol levels were measured from five hour developed cells (similar to phospholipid labelling), following lyophilisation, as previously described (Maslanski & Busa, 1990).
smiles,measurement,setting,value
"CCCC(CCC)C(=O)O [VPA, 2-propylpentanoic acid, reference compound]",treatment time required for depletion of inositol trisphosphate,[1],6 h
same,pKa,[2],4.6
same,effect on fatty acid activation (PaA-CoA),[3],no effect
same,seizure control in words,"[4]; 400 mg/kg, 3 hour test period",strongly attenuated seizures
same,animals in which seizures completely stopped,"[4]; 400 mg/kg, after 2 hours, 7 animals per group",did not terminate the seizures in any
same,spike amplitude,"[4]; 400 mg/kg, first hour",75.2±9.2%
same,spike amplitude,"[4]; 400 mg/kg, second hour",61.1±8.3%
same,spike amplitude,"[4]; 400 mg/kg, third hour",55.1±6.6%
same,effectiveness in status epilepticus model,[4]; high dose 600 mg/kg,effective
same,effectiveness in status epilepticus model,[4]; lower dose 400 mg/kg,partial effectiveness
same,reduction in inositol levels,[5],no significant reduction
